Paper PMC5026118 (Journal of pharmaceutical sciences, 2016)

Test: Aqueous solubility determination at room temperature
Type: physicochemical
Conditions: water; for log Sw (mg/ml) / Sw (log) Experimental: aqueous solubility of the hydrate, room temperature; for Sw (log) Experimental: value in brackets

Row | solubility thermodynamic at 48 h (thermodynamic from solid) | SMILES | log Sw (mg/ml) | Sw (log) Experimental
1 | 120 µg/mL | Sc1ncnc2nc[nH]c12 [Mercaptopurine, mercaptopurine monohydrate] | −0.93 log mg/ml | −0.93 log mg/ml
2 | – | O=c1c(O)c(-c2cc(O)c(O)c(O)c2)oc2cc(O)cc(O)c12 [Myricetin, Myricetin (MYR) monohydrate] | −3.19 log mg/ml | −3.19 log mg/ml
